From paper PMC8279484 (Journal of Medicinal Chemistry, 2021)
Like-named read-outs stand apart in the source and are kept apart here.

Columns and labels:
NF-κB = experiment: LPS-induced NF-κB-driven luciferase gene reporter assay in THP-1 Lucia monocytes; assay type: cell-based, human; conditions: for Rel. Slope: HS relative to LXA4 (1); for Potency Rel. Pot.: IC50 relative to LXA4 (1); for Efficacy Rel. Eff.: Imax relative to LXA4 (1); for Imax (%): maximal % inhibition of LPS (50 ng/mL)-stimulated NF-κB luciferase activity, 30 min pretreatment; for Imax (%) / reduction of LPS-induced NF-κB-driven luciferase activity: 1 pM–1 μM; for (Single component) Rel. Score: Rel. Pot. / (Single component) Rel. Score: Rel. Sl.: score relative to LXA4 (1); for Slope HS (Hill–Slope): slope of concentration–response curve; for (Aggregate) Rel. PD Score: sum of efficacy, potency, slope scores relative to LXA4 (1); for IC50: Homo sapiens, THP-1; for reduction of LPS-induced NF-κB-driven luciferase activity: approximate extent
Protocol: Mycoplasma-free THP-1-Lucia NF-κB cells were grown in an RPMI 1640 (Gibco) medium containing 2 mM L-glutamine, 1.50 g/L sodium bicarbonate, 4.50 g/L glucose, 10 mM N-(2-hydroxyethyl)piperazine-N′-ethanesulfonic acid (HEPES), and 1 mM sodium pyruvate. Then, 10% heat-inactivated fetal bovine serum (FBS) (30 min at 56 °C), 100 μg/mL Normocin, and Pen-Strep (50 U/mL to 50 μg/mL) were also added to the growth media. As THP-1-Lucia cells were resistant to Zeocin, the latter was used as a selective antibiotic (a high dose, i.e., 100 μg/mL, was alternated every 2 weeks with a low dose, i.e., 10 μg/mL).
LXA41 and all of the tested sLXms were dissolved in ethanol and further diluted in a culture medium (final ethanol concentration 0.1%; equivalent concentrations were used as the vehicle control). Prior to in vitro experiments, THP-1-Lucia NF-κB cells were harvested and plated at 1 × 10^5 cells/well on 96-well plates and left to settle in the incubator at 37 °C, 95% humidity, and 5% CO2, in 0.1% FBS-containing media, pretreated for 30 min with increasing doses of LXA41, sLXms (from 10^–12 to 10^–6 M), or appropriate controls, followed by stimulation with 50 ng/mL LPS for 24 h.
NFκB activity was monitored in the human THP-1 monocytic leukemia cell line containing a stably integrated NF-κB-inducible Lucia reporter construct (as previously reported).[21] When stimulated with LPS, the transcription factor NF-κB is activated, upregulating the synthesis of proinflammatory mediators, thus bringing about an inflammatory response. In these cells, NF-κB activation is linked to a […] luciferase gene and can be measured using luminescence.
Heat-killed listeria monocytogenes (HKLM) (10^8/mL) was used as a positive control.[28] The levels of NF-κB-induced Luciferase were then measured in a culture supernatant using QUANTI-Luc as the detection reagent, and measurements were taken on a bioluminescence reader.
After 24 h, the levels of NF-κB-induced Lucia were assayed in a cell culture supernatant using QUANTI-Luc, as a detection reagent, on a bioluminescence reader (Synergy HT, BioTek Instruments, Inc. Vermont). Aliquots of the supernatant were retained for subsequent cytokine and LDH assays. Cellular proteins were extracted with a radioimmunoprecipitation assay (RIPA) buffer (Thermo Fisher, Ireland), supplemented with protease inhibitors (Sigma-Aldrich, Ireland). Lysates were clarified by centrifugation (3200g, 10’, 4 °C) to remove cell debris, and the cell protein level was quantified by performing a bicinchoninic acid (BCA) assay (as per the manufacturer’s instructions) reading the protein absorbance at 570 nm, using a spectrophotometer (SPECTRAMAX M2, Molecular Devices (U.K.) Limited). A “relative luminescence unit” (RLU) was obtained using the average value of the lum/abs ratio of two replicates.
The “coding” of the heat-map indicates the arbitrary criteria to assign points to each single PD component (efficacy = Imax or Emax; potency = IC50 or EC50; slope = HS) to generate a final (aggregate) relative PD score. […] If a single PD component was equal to the reference level (x = 1), then the single-component relative score was arbitrarily set to 0 (gray). If a single PD component was smaller than the reference level (x < 1), then the single-component relative score was arbitrarily set to −1 (light red) or −2 (dark red). If the curve of a single PD component was best fitting to a flat line (x = 0), then the single-component relative score was arbitrarily set to −4 (purple) (Table S1).

THP-1 LUCIA monocytes = experiment: Intrinsic cytotoxicity: LDH release without LPS; assay type: cell-based, human; conditions: for intrinsic LDH release versus vehicle / spontaneous cell release: absence of LPS, 24 h, controls Dex 1 μM, 2 1 pM, 5 1 pM; for Intrinsic Toxicity Level: LDH-associated level of cytotoxicity (high / moderate / low); for Intrinsic Toxicity TC50 (pM): half-maximal intrinsic LDH-associated toxic activity, no LPS
In short: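 THP-1-Lucia NF-κB cells exposed 24 h to compounds, vehicle or controls, then LPS-stimulated for extrinsic, unstimulated for intrinsic. Supernatant LDH read at 490 nm minus 690 nm, relative to vehicle; maximum release from 2% Triton-X-100 lysis, spontaneous release from untreated cells; LPS response set to 100%.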

[1] = LPS 50 ng/mL, 24 h, read-out: Potency IC50

Q: What does the source list for `CCCCC[C@@H](O)c1c(/C=C/[C@@H](O)[C@@H](O)CCCC(=O)OC)nc(C)n1C` [Compound 5, imidazolo-LXA4]?
A: Rel. Slope (NF-κB): -9; Potency Rel. Pot. (NF-κB): 300; Efficacy Rel. Eff. (NF-κB): 1.83; Imax (%) (NF-κB; 24 h): 44 ± 9%; (Single component) Rel. Score: Rel. Pot. (NF-κB): 2 (x ≥ 5); (Single component) Rel. Score: Rel. Sl. (NF-κB): 1 (1 < x < 10); Slope HS (Hill–Slope) (NF-κB): 90; (Aggregate) Rel. PD Score (NF-κB): 5; intrinsic LDH release versus vehicle / spontaneous cell release (THP-1 LUCIA monocytes): did not display any significant cytotoxic effect

Q: Which “Rel. Slope” value (NF-κB) does the source give for `CCCCCCC[C@H](O)c1nc2ccccc2nc1/C=C/[C@@H](O)[C@@H](O)CCCC(=O)OC` [(S)-8, Methyl (5S,6R,E)-5,6-Dihydroxy-8-(3-((S)-1-hydroxyoctyl)quinoxalin-2-yl)oct-7-enoate] here?
A: 0

Q: What about the IC50 (NF-κB; [1]) of the same compound?
A: 0.01 nM

Q: What about the “Potency Rel. Pot.” value (NF-κB) of the same compound?
A: 6

Q: What about the “Efficacy Rel. Eff.” value (NF-κB) of the same compound?
A: 0.96

Q: What about the “IC50 (range in words)” value (NF-κB; LPS 50 ng/mL, 24 h) of the same compound?
A: “pM” range

Q: And the “reduction of LPS-induced NF-κB-driven luciferase activity” value (NF-κB)?
A: 10–20%

Q: And the “Imax (%)” value (NF-κB; 24 h)?
A: 23 ± 8%

Q: And the “(Single component) Rel. Score: Rel. Pot.” value (NF-κB)?
A: 2 (x ≥ 5)

Q: What about the “(Single component) Rel. Score: Rel. Sl.” value (NF-κB) of the same compound?
A: -4 (x = 0)

Q: What about the “Slope HS (Hill–Slope)” value (NF-κB) of the same compound?
A: 0

Q: What about the “(Aggregate) Rel. PD Score” value (NF-κB) of the same compound?
A: -2

Q: And the “Intrinsic Toxicity Level” value (THP-1 LUCIA monocytes)?
A: Low

Q: And the “intrinsic LDH release versus vehicle / spontaneous cell release” value (THP-1 LUCIA monocytes)?
A: lower than the vehicle

Q: And the “Intrinsic Toxicity TC50 (pM)” value (THP-1 LUCIA monocytes)?
A: 100 pM

Q: What does the source list for `CCCCC[C@@H](O)c1nc2ccccc2nc1/C=C/[C@H]1OC(C)(C)O[C@H]1CCCC(=O)OC` [(R)-17, Methyl 4-((4S,5R)-5-((E)-2-(3-((R)-1-Hydroxyhexyl)quinoxalin-2-yl)vinyl)-2,2-dimethyl-1,3-dioxolan-4-yl)butanoate]?
A: Rel. Slope (NF-κB): 0; IC50 (NF-κB; [1]): 0.001 nM; Potency Rel. Pot. (NF-κB): 60; Efficacy Rel. Eff. (NF-κB): 0.75; reduction of LPS-induced NF-κB-driven luciferase activity (NF-κB): least effective; Imax (%) (NF-κB; 24 h): 18 ± 7%; (Single component) Rel. Score: Rel. Pot. (NF-κB): 2 (x ≥ 5); (Single component) Rel. Score: Rel. Sl. (NF-κB): -4 (x = 0); Slope HS (Hill–Slope) (NF-κB): 0; (Aggregate) Rel. PD Score (NF-κB): -3; Intrinsic Toxicity TC50 (pM) (THP-1 LUCIA monocytes): 100 pM

Q: For `CCCCC[C@H](O)/C=C/C=C\C=C\C=C\[C@@H](O)[C@@H](O)CCCC(=O)O` [Compound 1, LXA4], which “Rel. Slope” value (NF-κB) is on record?
A: 1

Q: And the “Potency Rel. Pot.” value (NF-κB)?
A: 1

Q: And the “Efficacy Rel. Eff.” value (NF-κB)?
A: 1

Q: And the “Imax (%)” value (NF-κB; 24 h)?
A: 24 ± 1%

Q: `CCCCC[C@@H](O)c1nc2ccccc2nc1/C=C/[C@@H](O)[C@@H](O)CCCC(=O)OC` [(R)-6, Methyl (5S,6R,E)-5,6-Dihydroxy-8-(3-((R)-1-hydroxyhexyl)quinoxalin-2-yl)oct-7-enoate] was tested. Which “Rel. Slope” value (NF-κB) did it give?
A: 57

Q: And the IC50 (NF-κB; LPS 50 ng/mL, 24 h, read-out: IC50)?
A: 0.025 nM

Q: What about the “Potency Rel. Pot.” value (NF-κB) of the same compound?
A: 2.4

Q: And the “Efficacy Rel. Eff.” value (NF-κB)?
A: 1.58

Q: And the “Imax (%)” value (NF-κB; 24 h)?
A: 38 ± 9%

Q: What about the “(Single component) Rel. Score: Rel. Pot.” value (NF-κB) of the same compound?
A: 1 (1 < x < 5)

Q: And the “(Single component) Rel. Score: Rel. Sl.” value (NF-κB)?
A: 2 (x ≥ 10)

Q: And the “Intrinsic Toxicity Level” value (THP-1 LUCIA monocytes)?
A: Low and low cytotoxicity

Q: And the “intrinsic LDH release versus vehicle / spontaneous cell release” value (THP-1 LUCIA monocytes)?
A: lower than the vehicle

Q: What about the “Intrinsic Toxicity TC50 (pM)” value (THP-1 LUCIA monocytes) of the same compound?
A: 500 pM
